Like-named read-outs stand apart in the source and are kept apart here.
Tests used:
active mouse DPP1 enzyme = active mouse DPP1 enzyme (Mus musculus (Mouse), UniProt P97821); assay: Mouse DPP1 Enzyme IC50 Assay; type: biochemical; conditions: mouse DPP1 enzyme; Table 16; read-out: IC50, nM; Mouse
Protocol: Test articles were applied to active mouse DPP1 enzyme (R&D Systems; Minneapolis, MN) in Assay Buffer (50 mM MES pH 5.5, 50 mM NaCl, 5 mM DTT) in a total reaction volume of 125 μL. 25 μL of compound in Assay Buffer plus 5% DMSO was first added to 50 μL of active mouse DPP1 enzyme at a concentration of 62.5 pg/μL and allowed to pre-incubate for 10 minutes at 37° C. after which 50 μL of 1000 μM H-Gly-Arg-AMC substrate (Bachem; St. Torrance, CA) was added, giving final substrate concentration of 400 μM and a final DMSO concentration of 1%. Substrate cleavage was measured for 90 minutes at 37° C., with fluorescence at Excitation/Emission 350/450 nm measured every 5 minutes. DPP1 concentration was interpolated based on its activity relative to a standard curve of recombinant active mouse DPP1 enzyme. IC50 values for each compound were calculated via the XLFit (IDBS Version 5.3.1.3) Add-On to Microsoft Excel using the four parameter fit equation y=(A+((B−A)/(1+((C/x)^D)))), which appears as equation number 205 (4 Parameter Logistic Model or Sigmoidal Dose-Response Model) in XLFit. Default constraints were used for each Parameter. IC50 was defined as the compound concentration at which 50% of enzyme activity was inhibited when compared to the no-compound control.

[1] = target: Recombinant human DPP1 enzyme (Homo sapiens (Human), UniProt P53634); assay: Human DPP1 Enzyme IC50 Assay; type: biochemical; conditions: human DPP1 enzyme; Table 16; read-out: IC50, nM; Human
Chain of Recombinant human DPP1 enzyme (P53634 25-134): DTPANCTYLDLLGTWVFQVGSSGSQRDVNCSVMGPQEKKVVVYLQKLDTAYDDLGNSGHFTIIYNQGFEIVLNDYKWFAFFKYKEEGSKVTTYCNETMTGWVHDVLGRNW
Chain of Recombinant human DPP1 enzyme (P53634 231-394): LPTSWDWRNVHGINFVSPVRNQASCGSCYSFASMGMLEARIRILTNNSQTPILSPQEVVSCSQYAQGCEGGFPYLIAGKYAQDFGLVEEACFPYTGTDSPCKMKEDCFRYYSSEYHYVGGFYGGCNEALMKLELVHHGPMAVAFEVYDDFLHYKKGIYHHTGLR
Chain of Recombinant human DPP1 enzyme (P53634 395-463): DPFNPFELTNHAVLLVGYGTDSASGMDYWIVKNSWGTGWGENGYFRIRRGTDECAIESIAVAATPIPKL
Protocol: Recombinant human DPP1 enzyme (R&D Systems; Minneapolis, MN) was first proteolytically processed into its mature form using recombinant human cathepsin L (R&D Systems) in a buffer consisting of 20 mM citric acid pH 4.5, 150 mM NaCl, 1 mM EDTA and 10 mM DTT. Test articles were applied to activated human DPP1 enzyme in Assay Buffer (25 mM MES pH 6.0, 50 mM NaCl, 5 mM DTT) in a total reaction volume of 125 μL. 25 μL of compound in Assay Buffer plus 5% DMSO was first added to 50 μL of activated human DPP1 enzyme at a concentration of 1 ng/μL and allowed to pre-incubate for 10 minutes at 37° C. after which 50 μL of 1000 μM H-Gly-Arg-AMC substrate (Bachem; St. Torrance, CA) was added, giving final substrate concentration of 400 μM and a final DMSO concentration of 1%. Substrate cleavage was measured for 90 minutes at 37° C., with fluorescence at Excitation/Emission 350/450 nm measured every 5 minutes. DPP1 concentration was interpolated based on its activity relative to a standard curve of activated human recombinant DPP1 enzyme. IC50 values for each compound were calculated via the XLFit (IDBS Version 5.3.1.3) Add-On to Microsoft Excel using the four parameter fit equation y={A+[(B−A)]/[1+((C/x)^D)]}, which appears as equation number 205 (4 Parameter Logistic Model or Sigmoidal Dose-Response Model) in XLFit. Default constraints were used for each Parameter.

DPP1 in HL-60 cells = DPP1 in HL-60 cells (Homo sapiens (Human), UniProt P53634); assay: DPP1 Cell IC50 Assay (HL-60 cells, H-Gly-Phe-AFC substrate); type: cell-based
Chain of DPP1 in HL-60 cells (P53634 25-134): as the sequence (P53634 25-134) above
Chain of DPP1 in HL-60 cells (P53634 231-394): as the sequence (P53634 231-394) above
Chain of DPP1 in HL-60 cells (P53634 395-463): as the sequence (P53634 395-463) above
Protocol: HL-60 cells (ATCC; Manassas, VA) were maintained in RPMI-1640 supplemented with 20% heat-inactivated FBS and 1× Antibiotic Antimycotic (Cytiva; Marlborough, MA). Media was changed every three to four days and cells were not allowed to exceed 1×10^6 cells per mL. Prior to assay, cells were collected by centrifugation at 500 rcf for 3 minutes, resuspended in PBS and counted. Cells were diluted in PBS to a concentration of 5×10^5 live cells per mL and transferred to black 96-well plates for assay, 60 μL per well. Test articles were diluted in PBS plus 0.5% DMSO, and 20 μL was added to each assay well. Compound was allowed to pre-incubate with cells with gentle shaking at 100 rpm for 60 minutes at 37° C. in a cell culture incubator maintained at 5% CO2, after which 20 μL of 500 μM H-Gly-Phe-AFC substrate (MP Biomedicals; Solon, OH) was added to each well. Plates were returned to the incubator with shaking at 100 rpm for 30 minutes, after which fluorescence was measured at Excitation/Emission 400/505 nm. % Inhibition was calculated from RFU values compared to control cell wells that received only PBS plus 0.5% DMSO. IC50 values for each compound were calculated via the XLFit (IDBS Version 5.3.1.3) Add-On to Microsoft Excel using the four parameter fit equation y=(A+((B−A)/(1+((C/x)^D)))), which appears as equation number 205 (4 Parameter Logistic Model or Sigmoidal Dose-Response Model) in XLFit.

[2] = H-Gly-Phe-AFC substrate, Table 15, read-out: Cell IC50

Chain of active mouse DPP1 enzyme (P97821 25-134): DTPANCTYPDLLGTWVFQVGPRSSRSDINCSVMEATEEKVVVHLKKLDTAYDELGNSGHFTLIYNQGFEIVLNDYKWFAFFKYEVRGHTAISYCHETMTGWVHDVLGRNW
Chain of active mouse DPP1 enzyme (P97821 231-393): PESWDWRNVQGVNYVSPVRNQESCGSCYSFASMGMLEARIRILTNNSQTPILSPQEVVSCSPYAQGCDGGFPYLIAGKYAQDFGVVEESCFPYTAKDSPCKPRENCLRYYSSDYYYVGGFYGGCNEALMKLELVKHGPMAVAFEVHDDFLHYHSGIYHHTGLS
Chain of active mouse DPP1 enzyme (P97821 394-462): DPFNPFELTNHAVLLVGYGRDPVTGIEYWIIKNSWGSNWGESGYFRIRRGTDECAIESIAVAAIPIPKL

SMILES	IC50 (active mouse DPP1 enzyme) [nM]	IC50 [1] [nM]	IC50 (DPP1 in HL-60 cells; Table 16, read-out: Cell Assay) [nM]	IC50 (DPP1 in HL-60 cells; [2]) [nM]
Cn1c(=O)oc2ccc(-c3ccc(C[C@@H](C#N)NC(=O)[C@@H]4C[C@H]5C[C@H]5N4)cc3)cc21 [drawing 1151]	24	41.1	3.7	–
Cn1c(=O)oc2ccc(-c3ccc(C[C@@H](C#N)NC(=O)[C@@H]4C[C@@H]5CCC[C@@H]5N4)c(F)c3)cc21 [drawing 1220]	3.4	5.9	1.7	–
Cn1c(=O)oc2ccc(-c3ccc(C[C@@H](C#N)NC(=O)[C@@H]4C[C@@H]5CCC[C@@H]5N4)cc3)cc21	8.2	17.3	3.1	–
Cn1c(=O)oc2ccc(-c3ccc(C[C@@H](C#N)NC(=O)C4CNCC45CCC5)cc3)cc21 (stereo partly drawn) [drawing 1188]	2080	828	60.4	–
N#C[C@H](Cc1ccc(-c2ccc3c(c2)C(=O)NC3)cc1)NC(=O)[C@@H]1CNCCCO1	–	428	59.9	–
[2H]C([2H])([2H])n1c(=O)oc2ccc(-c3ccc(C[C@@H](C#N)NC(=O)C4CNC4)c(F)c3)cc21	–	416	418	–
Cn1c(=O)oc2ccc(-c3ccc(C[C@@H](C#N)NC(=O)[C@@H]4C[C@@H]5CCC[C@@H]5N4)c(F)c3)cc21 [drawing 1227]	–	7.6	1.9	–
Cn1c(=O)oc2ccc(-c3ccc(C[C@@H](C#N)NC(=O)[C@@H]4CNCCCO4)cc3F)cc21	218	186	10.1	–
N#Cc1ccc(-c2ccc(C[C@@H](C#N)NC(=O)[C@@H]3C[C@@H]4COC[C@@H]4N3)cc2)cc1	246	480	875	–
Cn1c(=O)oc2ccc(-c3cc(F)c(C[C@@H](C#N)NC(=O)[C@@H]4CNCCCO4)cc3F)cc21	–	29.6	3.8	–
[2H]C([2H])([2H])n1c(=O)oc2ccc(-c3ccc(C[C@@H](C#N)NC(=O)[C@@H]4C[C@@H]5COC[C@@H]5N4)cc3)cc21	–	426	500	–
Cn1c(=O)oc2ccc(-c3ccc(C[C@@H](C#N)NC(=O)[C@@H]4C[C@@H]5C[C@@H]5N4)cc3)cc21	131	189	26	–
Cn1c(=O)oc2ccc(-c3ccc(C[C@@H](C#N)NC(=O)[C@H]4C[C@H]5OCC[C@H]5N4)cc3)cc21	226	497	> 1000	–
Cn1c(=O)oc2ccc(-c3ccc(C[C@@H](C#N)NC(=O)[C@@H]4C[C@@H]5COC[C@@H]5N4)c(F)c3)cc21	41.2	179	150	–
CC[C@@H](/C=C/C(=O)N1CCc2ccccc21)NC(=O)C1(N)CCOCC1 [GSK-2793660, reference compound]	–	–	–	0.34
Cn1c(=O)oc2ccc(-c3ccc(C[C@@H](C#N)NC(=O)[C@@H]4C[C@H]5C[C@H]5N4)cc3)cc21 [IWD-002, (1R,3S,5R)—N—((S)-1-cyano-2-(4-(3-methyl-2-oxo-2,3-dihydrobenzo[d]oxazol-5-yl)phenyl)ethyl)-2-azabicyclo[3.1.0]hexane-3-carboxamide]	–	–	–	3.7
Cn1c(=O)oc2ccc(-c3ccc(C[C@@H](C#N)NC(=O)C4CNCC(O)C4)cc3)cc21 (stereo partly drawn)	2170	2030	–	–
Cn1c(=O)oc2ccc(-c3ccc(C[C@@H](C#N)NC(=O)C4CCCCC4)cc3)cc21	> 5000	> 5000	–	–

SMILES	IC50 (active mouse DPP1 enzyme) [nM]	IC50 [1] [nM]	IC50 (DPP1 in HL-60 cells; Table 16, read-out: Cell Assay) [nM]	IC50 (DPP1 in HL-60 cells; [2]) [nM]
N#Cc1ccc(-c2ccc(C[C@@H](C#N)NC(=O)[C@@H]3CNCCCO3)c(F)c2)cc1 [drawing 1197]	36.7	49.5	4.2	–
N#Cc1ccc(-c2ccc(C[C@@H](C#N)NC(=O)[C@H]3C[C@@H]4COC[C@@H]4N3)cc2)cc1	> 5000	> 5000	–	–
N#Cc1ccc(-c2ccc(C[C@@H](C#N)NC(=O)[C@@H]3C[C@H]4C[C@H]4N3)cc2)cc1	92.4	140	–	–
Cn1c(=O)oc2ccc(-c3ccc(C[C@@H](C#N)NC(=O)C4=CS(=O)(=O)CCNC4)cc3)cc21	> 5000	> 5000	–	–
Cn1c(=O)oc2ccc(-c3cc(F)c(C[C@@H](C#N)NC(=O)[C@@H]4CNCCCO4)c(F)c3)cc21	–	42.2	4.9	–
Cn1c(=O)oc2ccc(-c3ccc(C[C@@H](C#N)NC(=O)C4CNCCN4)cc3)cc21 (stereo partly drawn)	> 5000	> 5000	–	–
C=C1Oc2ccc(-c3ccc(C[C@@H](C#N)NC(=O)CC4(N)CCS(=O)(=O)C4)cc3)cc2N1C (stereo partly drawn)	> 5000	> 5000	–	–
Cn1c(=O)oc2ccc(-c3ccc(C[C@@H](C#N)NC(=O)CC(N)C4CC4)cc3)cc21 (stereo partly drawn)	> 5000	> 5000	–	–
Cn1c(=O)oc2ccc(-c3ccc(C[C@@H](C#N)NC(=O)C4CS(=O)(=O)CCN4)cc3)cc21 (stereo partly drawn)	> 5000	> 5000	–	–
[2H]C([2H])([2H])n1c(=O)oc2ccc(-c3ccc(C[C@@H](C#N)NC(=O)[C@@H]4C[C@@H]5COC[C@@H]5N4)c(F)c3)cc21	–	102	146	–
Cn1c(=O)oc2ccc(-c3ccc(C[C@@H](C#N)NC(=O)C4CNC4)cc3)cc21	825	1270	–	–
Cn1c(=O)oc2ccc(-c3ccc(C[C@@H](C#N)NC(=O)[C@@H]4C[C@H]5OCC[C@H]5N4)cc3)cc21	> 5000	> 5000	–	–
Cn1c(=O)oc2ccc(-c3ccc(C[C@@H](C#N)NC(=O)C4(N)CCS(=O)(=O)C4)cc3)cc21 (stereo partly drawn)	> 5000	> 5000	–	–
Cn1c(=O)oc2ccc(-c3ccc(C[C@@H](C#N)NC(=O)C4CCNC4)cc3)cc21 (stereo partly drawn)	> 5000	> 5000	–	–
Cn1c(=O)oc2ccc(-c3ccc(C[C@@H](C#N)NC(=O)C4CNCCS(=O)(=O)C4)cc3)cc21 (stereo partly drawn)	2760	4820	–	–
Cn1c(=O)oc2ccc(-c3ccc(CC(C#N)NC(=O)[C@H]4CCNC[C@H]4N)cc3)cc21 (stereo partly drawn)	2430	1310	–	–
Cn1c(=O)oc2ccc(-c3ccc(C[C@@H](C#N)NC(=O)C4CCNCC4)cc3)cc21	> 5000	> 5000	–	–

— US20260062420A1, “NOVEL DPP1 INHIBITORS AND USES THEREOF” (Insmed Incorporated, priority 2022, published 2026)
